The values below come from publication PMC3684959 (Chemistry & biology, 2013).

Test [1] concerns the target T1, Arp3 (Arp2/3 complex) (Bos taurus, UniProt P61157). The test is described as follows: X-ray co-crystal structure, […] Å, with CK-869 also bound. It counts as binding.
In test [2] the target is T1, Arp3 (Arp2/3 complex). In words: fluorescence titration of BtArp2/[…] complex with ε-ATP. It counts as binding.

As to `Nc1ncnc2c1ncn2[C@@H]1O[C@H](COP(=O)(O)OP(=O)(O)OP(=O)(O)O)[C@@H](O)[C@H]1O` [ATP], the “X-ray co-crystal structure, 2.5 Å, with CK-869 also bound” value in test [1] is “show strong density for both ATP and CK-869 bound to Arp3 subunit”.

On to `O=P(O)(O)OP(=O)(O)OP(=O)(O)OC[C@H]1O[C@@H](n2cnc3c2ncn2ccnc32)[C@H](O)[C@@H]1O` [ε-ATP], for which binding in test [2] was characterised by a dissociation constant (Kd) of 3 ± 0.4 µM.

In general, Kd refers to the constant that tells how readily two partners part at equilibrium. A lower Kd goes with a tighter complex.
